Source: US20020172704A1, “Planting method and biodegradable material for preventing pests” (priority 2001, published 2002)
Marks after values point to notes of the source that are not given here.

System: golden apple snail (Pomacea canaliculata (Lamarck))
Test: Hurting rate and death rate of golden apple snails on SDS-added paper mat round boards on wet paddy soil in Petri dishes
Type: in vivo
Details: for Death Rate (%) / Hurting Rate (%): average after three days, paper mat
Procedure: The glutinous solutions with different SDS densities (100, 500, 1000, 2000, 5000, 7500, and 10000 ppm) are prepared in advance, and the paper mat made by YUEN FOONG YU PAPER MFG Co., Ltd is also cut into many round boards having a diameter of 9 cm.
The test is done by the following steps. At first, each of the round boards is dripped with 2 ml of one of the glutinous solutions respectively. The round boards are dried in an oven at a temperature of 30° C. Then, the soil taken from the paddy field is added with water to simulate the natural environment. Each of the dried SDS-added round boards is bedded on 50 g of the wet soil in a Petri dish respectively. Finally, each of the dishes is added with 10 ml water and put 10 golden apple snails thereon.
Two other groups are prepared for comparison. […] All the three groups are observed in a greenhouse.

[1] = Conc. of SDS solution 100 ppm, snail size 3.28 ± 0.43 g/per snail
[2] = Conc. of SDS solution 500 ppm, snail size 3.28 ± 0.43 g/per snail
[3] = Conc. of SDS solution 1000 ppm, snail size 3.28 ± 0.43 g/per snail
[4] = Conc. of SDS solution 2500 ppm, snail size 0.82 ± 0.26 g/per snail
[5] = Conc. of SDS solution 5000 ppm, snail size 0.82 ± 0.26 g/per snail
[6] = Conc. of SDS solution 7500 ppm, snail size 0.82 ± 0.26 g/per snail
[7] = Conc. of SDS solution 10000 ppm, snail size 0.82 ± 0.26 g/per snail

CCCCCCCCCCCCOS(=O)(=O)[O-].[Na+] [SDS, sodium dodecyl sulfate]
Death Rate (%) [1]: 0.00%
Hurting Rate (%) [1]: 3.33* %
Death Rate (%) [2]: 3.33%
Hurting Rate (%) [2]: 6.67%
Death Rate (%) [3]: 10.00%
Hurting Rate (%) [3]: 23.33%
Death Rate (%) (Conc. of SDS solution 2000 ppm, snail size 3.28 ± 0.43 g/per snail): 10.00%
Death Rate (%) [4]: 100.00%
Hurting Rate (%) [4]: 100.00* %
Death Rate (%) [5]: 100.00%
Hurting Rate (%) [5]: 100.00%
Death Rate (%) [6]: 100.00%
Hurting Rate (%) [6]: 100.00%
Death Rate (%) [7]: 100.00%
Hurting Rate (%) [7]: 100.00%
hurting rate (smaller snails, SDS concentrations above 2500 ppm (summary of Table 2)): ~100.00%
